# In publication PMC11799997 (ACS Omega, 2025):
# What was measured:
# [1] = system: renal brush border membrane vesicles (RBBMVs); test: Enzyme-mediated cleavage assay with RBBMVs; type: in vitro ADME, rat; details: 10 mg/mL RBBMVs, 37 °C, TLC; for release of [64Cu]Cu-cyclam-G upon incubation with RBBMVs: 10 min–24 h; for release of radiometabolite-X (% of the radioactivity): 24 h
# [2] = Urinary radiometabolite assay in normal mice; type: in vivo, mouse; details: for urinary radioactivity with tR consistent with [64Cu]Cu-cyclam-G: pilot, 13.3 MBq/12.4 nmol i.v., RP-HPLC
# [3] = Ex vivo biodistribution study in normal mice; design: species or system mouse; details: 3 to 24 h p.i.
# U87MG tumor-bearing mice = test: PET imaging of U87MG tumor-bearing mice; type: in vivo, mouse; details: for rate of reduction in renal radioactivity level (PET): from 1 to 24 h p.i.
# [4] = Whole-body dynamic PET in normal mice; details: for RRL relative to [64Cu]Cu-cyclam-RaftRGD / renal radioactivity level (RRL): 57.5 min p.i.; for renal radioactivity level (RRL) / radioactivity in the bladder: 2.92–4.26 MBq/0.3 nmol i.v.; for radioactivity in the bladder: by 1 h p.i.
# [5] = system: renal brush border enzymes (RBBMVs); test: Enzyme inhibition study of RBBMV-mediated cleavage of the GFK linkage; type: biochemical, rat; details: 1 mM inhibitor; for inhibition of release of [64Cu]Cu-cyclam-G from [64Cu]Cu-cyclam-GFK(Bz) / inhibition of release of radiometabolite-X from [64Cu]Cu-cyclam-GFK(Bz): RBBMVs 10 mg/mL, 37 °C, 5 or 24 h, TLC; for inhibition of release of [64Cu]Cu-cyclam-G from [64Cu]Cu-cyclam-GFK(Bz) (pilot): RBBMVs 3 mg/mL, 37 °C overnight, RP-HPLC
# [6] = Pilot dynamic PET imaging of [64Cu]Cu-cyclam-G in normal mice
inhibition of release of [64Cu]Cu-cyclam-G from [64Cu]Cu-cyclam-GFK(Bz) [5],inhibition of release of radiometabolite-X from [64Cu]Cu-cyclam-GFK(Bz) [5],Compound,release of [64Cu]Cu-cyclam-G upon incubation with RBBMVs [1],release of radiometabolite-X (% of the radioactivity) [1] [%],"urine radioactivity fraction as intact compound ([2]; urine 0–6 h p.i., TLC)",reduction of kidney radioactivity level [3] [%],reduction of liver radioactivity level [3] [%],rate of reduction in renal radioactivity level (PET) (U87MG tumor-bearing mice) [%],further results
partially inhibited,partially inhibited,C[C@H](CS)C(=O)N1CCC[C@H]1C(=O)O [captopril],,,,,,,
not inhibited,partially inhibited,NC(N)=NCCSCC(CS)C(=O)O (stereo not drawn) [mergetpa],,,,,,,
nearly completely inhibited,barely inhibited,CC(C)C[C@H](NP(=O)(O)O[C@@H]1O[C@@H](C)[C@H](O)[C@@H](O)[C@H]1O)C(=O)N[C@@H](Cc1c[nH]c2ccccc12)C(=O)O [phosphoramidon],,,,,,,inhibition of release of [64Cu]Cu-cyclam-G from [64Cu]Cu-cyclam-GFK(Bz) (pilot) [5]: almost completely inhibited

# More lines, now with the values behind:
Compound,inhibition of release of [64Cu]Cu-cyclam-G from [64Cu]Cu-cyclam-GFK(Bz) [5],inhibition of release of radiometabolite-X from [64Cu]Cu-cyclam-GFK(Bz) [5],release of [64Cu]Cu-cyclam-G upon incubation with RBBMVs [1],release of radiometabolite-X (% of the radioactivity) [1] [%],"urine radioactivity fraction as intact compound ([2]; urine 0–6 h p.i., TLC)",reduction of kidney radioactivity level [3] [%],reduction of liver radioactivity level [3] [%],rate of reduction in renal radioactivity level (PET) (U87MG tumor-bearing mice) [%],further results
"O=C(CN1CCCNCCNCCCNCC1)NCC(=O)N[C@@H](Cc1ccccc1)C(=O)N[C@@H](CCCCNC(=O)c1ccccc1)C(=O)O [[^64Cu]Cu-cyclam-GFK(Bz), [^64Cu]Cu-cyclam-GFK(benzoyl [Bz])-OH, metal not drawn]",,,released the expected fragment,43.7,67.6 ± 3.4%,,,,"urinary radioactivity with tR consistent with [64Cu]Cu-cyclam-G ([2]; mouse urine 10 min p.i.): 5.9%; urinary radioactivity with tR consistent with [64Cu]Cu-cyclam-G ([2]; mouse urine 2 h p.i.): 13.8%; urine radioactivity fraction as [64Cu]Cu-cyclam-G ([2]; urine 0–6 h p.i., TLC): 27.2 ± 2.5%"
"C[C@@H]1NC(=O)[C@H](CCCCNC(=O)CO/N=C/C(=O)NCCCC[C@@H]2NC(=O)[C@@H](Cc3ccccc3)NC(=O)[C@H](CC(=O)O)NC(=O)CNC(=O)[C@H](CCCNC(=N)N)NC2=O)NC(=O)CNC(=O)[C@@H]2CCCN2C(=O)[C@H](CCCCNC(=O)CO/N=C/C(=O)NCCCC[C@@H]2NC(=O)[C@@H](Cc3ccccc3)NC(=O)[C@H](CC(=O)O)NC(=O)CNC(=O)[C@H](CCCNC(=N)N)NC2=O)NC(=O)[C@H](CCCCNC(=O)CCNC(=O)CCNC(=O)CCNC(=O)[C@H](CCCCN)NC(=O)[C@H](Cc2ccccc2)NC(=O)CNC(=O)CN2CCCNCCNCCCNCC2)NC(=O)[C@H](CCCCNC(=O)CO/N=C/C(=O)NCCCC[C@@H]2NC(=O)[C@@H](Cc3ccccc3)NC(=O)[C@H](CC(=O)O)NC(=O)CNC(=O)[C@H](CCCNC(=N)N)NC2=O)NC(=O)CNC(=O)[C@@H]2CCCN2C(=O)[C@H](CCCCNC(=O)CO/N=C/C(=O)NCCCC[C@@H]2NC(=O)[C@@H](Cc3ccccc3)NC(=O)[C@H](CC(=O)O)NC(=O)CNC(=O)[C@H](CCCNC(=N)N)NC2=O)NC1=O [[^64Cu]Cu-cyclam-GFK(βA)3-RaftRGD, metal not drawn]",,,failed to release,22.9,much lower and poorly defined for quantification,74.4,34,75.6 ± 1.8,"urine radioactivity fraction as radiometabolite-X ([64Cu]Cu-cyclam-GF) ([2]; urine 0–6 h p.i., TLC): 69.1 ± 4.5%; tumor uptake (PET) (U87MG tumor-bearing mice; U87MG tumor, 1–24 h p.i.): significantly higher than those of the GFK compound; RRL relative to [64Cu]Cu-cyclam-RaftRGD [4]: 2.57 fold"
"C[C@@H]1NC(=O)[C@H](CCCCNC(=O)CO/N=C/C(=O)NCCCC[C@@H]2NC(=O)[C@@H](Cc3ccccc3)NC(=O)[C@H](CC(=O)O)NC(=O)CNC(=O)[C@H](CCCNC(=N)N)NC2=O)NC(=O)CNC(=O)[C@@H]2CCCN2C(=O)[C@H](CCCCNC(=O)CO/N=C/C(=O)NCCCC[C@@H]2NC(=O)[C@@H](Cc3ccccc3)NC(=O)[C@H](CC(=O)O)NC(=O)CNC(=O)[C@H](CCCNC(=N)N)NC2=O)NC(=O)[C@H](CCCCNC(=O)[C@H](CCCCN)NC(=O)[C@H](Cc2ccccc2)NC(=O)CNC(=O)CN2CCCNCCNCCCNCC2)NC(=O)[C@H](CCCCNC(=O)CO/N=C/C(=O)NCCCC[C@@H]2NC(=O)[C@@H](Cc3ccccc3)NC(=O)[C@H](CC(=O)O)NC(=O)CNC(=O)[C@H](CCCNC(=N)N)NC2=O)NC(=O)CNC(=O)[C@@H]2CCCN2C(=O)[C@H](CCCCNC(=O)CO/N=C/C(=O)NCCCC[C@@H]2NC(=O)[C@@H](Cc3ccccc3)NC(=O)[C@H](CC(=O)O)NC(=O)CNC(=O)[C@H](CCCNC(=N)N)NC2=O)NC1=O [[^64Cu]Cu-cyclam-GFK-RaftRGD, metal not drawn]",,,failed to release,18.2,27.7 ± 2.4%,61.1,28.0,73.0 ± 2.3,"urine radioactivity fraction as radiometabolite-X ([64Cu]Cu-cyclam-GF) ([2]; urine 0–6 h p.i., TLC): 56.9 ± 2.0%; RRL relative to [64Cu]Cu-cyclam-RaftRGD [4]: 2.98 fold"
"C[C@@H]1NC(=O)[C@H](CCCCNC(=O)CO/N=C/C(=O)NCCCC[C@@H]2NC(=O)[C@@H](Cc3ccccc3)NC(=O)[C@H](CC(=O)O)NC(=O)CNC(=O)[C@H](CCCNC(=N)N)NC2=O)NC(=O)CNC(=O)[C@@H]2CCCN2C(=O)[C@H](CCCCNC(=O)CO/N=C/C(=O)NCCCC[C@@H]2NC(=O)[C@@H](Cc3ccccc3)NC(=O)[C@H](CC(=O)O)NC(=O)CNC(=O)[C@H](CCCNC(=N)N)NC2=O)NC(=O)[C@H](CCCCNC(=O)CN2CCCNCCNCCCNCC2)NC(=O)[C@H](CCCCNC(=O)CO/N=C/C(=O)NCCCC[C@@H]2NC(=O)[C@@H](Cc3ccccc3)NC(=O)[C@H](CC(=O)O)NC(=O)CNC(=O)[C@H](CCCNC(=N)N)NC2=O)NC(=O)CNC(=O)[C@@H]2CCCN2C(=O)[C@H](CCCCNC(=O)CO/N=C/C(=O)NCCCC[C@@H]2NC(=O)[C@@H](Cc3ccccc3)NC(=O)[C@H](CC(=O)O)NC(=O)CNC(=O)[C@H](CCCNC(=N)N)NC2=O)NC1=O [[^64Cu]Cu-cyclam-RaftRGD, [^64Cu]Cu-cyclam-RAFT-c(-RGDfK-)4, metal not drawn]",,,,,,22.8,27.0,43.0 ± 4.5,
CC1(C)C[C@@H]1C(=O)N/C(=C\CCCCSC[C@H](N)C(=O)O)C(=O)O [cilastatin],not inhibited,not inhibited,,,,,,,inhibition of release of [64Cu]Cu-cyclam-G from [64Cu]Cu-cyclam-GFK(Bz) (pilot) [5]: remained unaffected
[^64Cu]Cu-cyclam-Gly-OH,,,,,,,,,"0–6 h urinary radioactivity levels ([2]; normal mice, 7.4 MBq i.v., group values): 34.7 to 50.9 %ID; renal radioactivity level (RRL) [4]: 1.14 ± 0.15 %ID/g; radioactivity in the bladder [4]: > 70 %ID; reduction of renal uptake from peak ([6]; 1.5 to 57.5 min p.i.): 96.7%; renal uptake peak ([6]; 1.5 min p.i., ~7.4 MBq/2 nmol i.v.): 20.3 ± 2.9 %ID/g; renal uptake ([6]; 57.5 min p.i., ~7.4 MBq/2 nmol i.v.): 0.68 ± 0.02 %ID/g; ID excreted in urine ([6]; within 60 min after injection): more than 70 % of ID"
[^64Cu]Cu-cyclam-Gly-Phe-OH [[^64Cu]Cu-cyclam-GF],,,,,,,,,renal radioactivity level (RRL) [4]: 1.50 ± 0.81 %ID/g; radioactivity in the bladder [4]: > 70 %ID
